Reference: publication PMC8213057, “Targeting ALK2: An Open Science Approach to Developing Therapeutics for the Treatment of Diffuse Intrinsic Pontine Glioma” (Journal of Medicinal Chemistry, 2020)

Legend:
ERN2/IRE2 = ERN2/IRE2 (Homo sapiens, UniProt Q76MJ5); details: 1 μM; Run 1, Run 2
RON/MST1R = RON/MST1R (Homo sapiens, UniProt Q04912); details: 1 μM; Run 1, Run 2
ULK2 = molecular target: T1, ULK2 (Homo sapiens, UniProt Q8IYT8); experiment: biochemical; details: read-out: % enzyme activity, 1 μM; Run 1, Run 2
T1 sequence (Q8IYT8 1-1036): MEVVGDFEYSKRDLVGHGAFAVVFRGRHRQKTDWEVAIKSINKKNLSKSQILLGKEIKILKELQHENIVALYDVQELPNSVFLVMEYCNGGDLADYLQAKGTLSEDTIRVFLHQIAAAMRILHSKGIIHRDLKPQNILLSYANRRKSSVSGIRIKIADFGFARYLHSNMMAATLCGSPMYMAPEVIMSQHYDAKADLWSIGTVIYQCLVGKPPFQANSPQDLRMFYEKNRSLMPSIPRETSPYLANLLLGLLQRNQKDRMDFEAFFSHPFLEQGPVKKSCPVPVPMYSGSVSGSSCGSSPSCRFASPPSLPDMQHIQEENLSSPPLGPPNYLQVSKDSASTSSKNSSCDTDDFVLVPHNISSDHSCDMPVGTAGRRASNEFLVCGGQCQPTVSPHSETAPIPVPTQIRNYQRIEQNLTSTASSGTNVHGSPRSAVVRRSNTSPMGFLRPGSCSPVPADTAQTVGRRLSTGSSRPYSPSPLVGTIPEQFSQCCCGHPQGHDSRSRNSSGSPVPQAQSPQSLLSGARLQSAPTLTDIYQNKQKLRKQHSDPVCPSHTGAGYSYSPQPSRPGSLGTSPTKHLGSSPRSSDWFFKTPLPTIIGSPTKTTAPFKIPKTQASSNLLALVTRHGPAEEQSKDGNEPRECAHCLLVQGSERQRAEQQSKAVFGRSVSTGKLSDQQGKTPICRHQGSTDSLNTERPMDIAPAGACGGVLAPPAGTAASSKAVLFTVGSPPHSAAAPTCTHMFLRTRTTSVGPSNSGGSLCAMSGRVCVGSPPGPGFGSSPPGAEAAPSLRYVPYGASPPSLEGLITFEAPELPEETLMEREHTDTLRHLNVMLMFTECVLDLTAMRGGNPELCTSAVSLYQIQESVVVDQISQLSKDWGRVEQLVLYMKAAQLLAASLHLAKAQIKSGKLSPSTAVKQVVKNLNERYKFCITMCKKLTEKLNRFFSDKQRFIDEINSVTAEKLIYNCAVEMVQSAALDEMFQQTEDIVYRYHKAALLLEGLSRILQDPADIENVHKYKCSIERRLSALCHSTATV

CDK17/cyclin Y (PCTK2) = CDK17/cyclin Y (PCTK2) (Homo sapiens, UniProt Q00537); details: 1 μM; Run 1, Run 2
LATS1 = molecular target: T2, LATS1 (Homo sapiens, UniProt O95835); details: 1 μM; Run 1, Run 2
T2 sequence (O95835 1-1130): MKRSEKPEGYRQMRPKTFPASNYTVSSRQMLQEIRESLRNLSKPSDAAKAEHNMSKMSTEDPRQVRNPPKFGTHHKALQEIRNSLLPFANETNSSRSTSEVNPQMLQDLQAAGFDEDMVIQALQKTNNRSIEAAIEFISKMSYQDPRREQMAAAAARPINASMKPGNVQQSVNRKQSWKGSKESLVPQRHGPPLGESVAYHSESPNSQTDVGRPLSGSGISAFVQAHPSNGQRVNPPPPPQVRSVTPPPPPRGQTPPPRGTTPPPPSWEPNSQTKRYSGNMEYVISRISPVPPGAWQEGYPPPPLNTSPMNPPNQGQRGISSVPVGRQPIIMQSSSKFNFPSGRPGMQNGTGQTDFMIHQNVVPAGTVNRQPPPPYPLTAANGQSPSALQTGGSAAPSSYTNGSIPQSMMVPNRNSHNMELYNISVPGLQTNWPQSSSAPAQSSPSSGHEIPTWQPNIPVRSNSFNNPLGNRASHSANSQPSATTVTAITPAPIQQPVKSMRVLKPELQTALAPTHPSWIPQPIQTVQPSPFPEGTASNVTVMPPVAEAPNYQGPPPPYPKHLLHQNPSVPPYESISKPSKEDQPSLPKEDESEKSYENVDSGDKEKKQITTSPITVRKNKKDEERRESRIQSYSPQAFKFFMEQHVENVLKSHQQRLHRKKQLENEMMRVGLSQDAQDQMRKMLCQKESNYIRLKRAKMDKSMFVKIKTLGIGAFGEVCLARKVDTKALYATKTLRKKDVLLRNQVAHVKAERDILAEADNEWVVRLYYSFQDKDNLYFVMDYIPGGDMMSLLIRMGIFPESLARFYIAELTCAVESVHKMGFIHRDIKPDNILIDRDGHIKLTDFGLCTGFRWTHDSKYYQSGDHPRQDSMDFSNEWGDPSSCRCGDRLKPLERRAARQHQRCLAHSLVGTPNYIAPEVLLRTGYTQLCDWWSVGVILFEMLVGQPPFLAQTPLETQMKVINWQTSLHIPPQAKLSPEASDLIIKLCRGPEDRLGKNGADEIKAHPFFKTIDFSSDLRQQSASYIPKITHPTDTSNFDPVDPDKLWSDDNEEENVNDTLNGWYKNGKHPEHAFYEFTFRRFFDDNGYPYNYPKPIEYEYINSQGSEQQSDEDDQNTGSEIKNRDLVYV

ARK5/NUAK1 = molecular target: T3, ARK5/NUAK1 (Homo sapiens, UniProt O60285); details: 1 μM; Run 1, Run 2
T3 sequence (O60285 1-661): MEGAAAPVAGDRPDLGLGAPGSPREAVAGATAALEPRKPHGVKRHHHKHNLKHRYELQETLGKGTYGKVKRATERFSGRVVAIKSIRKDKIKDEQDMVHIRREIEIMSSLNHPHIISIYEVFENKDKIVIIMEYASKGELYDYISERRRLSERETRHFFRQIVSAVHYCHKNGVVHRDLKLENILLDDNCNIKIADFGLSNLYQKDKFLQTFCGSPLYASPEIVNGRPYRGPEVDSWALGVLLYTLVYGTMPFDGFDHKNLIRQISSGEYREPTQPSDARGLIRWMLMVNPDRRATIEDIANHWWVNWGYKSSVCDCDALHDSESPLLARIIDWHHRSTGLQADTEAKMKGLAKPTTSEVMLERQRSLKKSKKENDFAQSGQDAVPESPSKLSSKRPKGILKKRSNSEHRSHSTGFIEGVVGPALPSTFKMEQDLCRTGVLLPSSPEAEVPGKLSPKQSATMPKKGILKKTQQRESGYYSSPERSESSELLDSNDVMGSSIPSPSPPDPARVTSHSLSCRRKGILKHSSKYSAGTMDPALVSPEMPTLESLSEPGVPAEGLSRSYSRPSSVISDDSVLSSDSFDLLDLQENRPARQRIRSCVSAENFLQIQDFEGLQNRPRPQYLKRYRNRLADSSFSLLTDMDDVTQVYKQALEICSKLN

Sequence of ERN2/IRE2 (Q76MJ5 35-926): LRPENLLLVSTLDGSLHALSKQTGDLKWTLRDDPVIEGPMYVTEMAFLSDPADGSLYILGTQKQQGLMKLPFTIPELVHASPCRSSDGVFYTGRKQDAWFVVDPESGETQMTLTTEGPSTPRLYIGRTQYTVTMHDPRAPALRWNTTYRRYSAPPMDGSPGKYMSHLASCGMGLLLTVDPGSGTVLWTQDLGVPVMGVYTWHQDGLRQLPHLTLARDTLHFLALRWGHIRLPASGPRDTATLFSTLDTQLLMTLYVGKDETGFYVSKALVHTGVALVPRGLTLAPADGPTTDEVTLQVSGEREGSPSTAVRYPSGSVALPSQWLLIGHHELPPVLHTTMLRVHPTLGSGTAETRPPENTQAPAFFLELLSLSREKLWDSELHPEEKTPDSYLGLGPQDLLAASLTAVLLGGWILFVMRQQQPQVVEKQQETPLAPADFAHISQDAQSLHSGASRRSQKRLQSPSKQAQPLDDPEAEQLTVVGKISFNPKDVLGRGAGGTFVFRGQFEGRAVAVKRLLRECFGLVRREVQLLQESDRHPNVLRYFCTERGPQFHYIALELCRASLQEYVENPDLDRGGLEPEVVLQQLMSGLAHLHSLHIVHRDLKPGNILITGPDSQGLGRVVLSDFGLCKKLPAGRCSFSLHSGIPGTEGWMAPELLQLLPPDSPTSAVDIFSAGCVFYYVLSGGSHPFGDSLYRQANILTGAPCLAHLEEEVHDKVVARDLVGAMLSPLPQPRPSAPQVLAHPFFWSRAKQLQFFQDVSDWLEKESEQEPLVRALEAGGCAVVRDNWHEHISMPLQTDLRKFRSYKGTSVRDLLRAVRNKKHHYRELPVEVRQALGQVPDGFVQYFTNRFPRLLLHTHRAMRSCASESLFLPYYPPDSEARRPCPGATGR
Sequence of CDK17/cyclin Y (PCTK2) (Q00537 whole entry): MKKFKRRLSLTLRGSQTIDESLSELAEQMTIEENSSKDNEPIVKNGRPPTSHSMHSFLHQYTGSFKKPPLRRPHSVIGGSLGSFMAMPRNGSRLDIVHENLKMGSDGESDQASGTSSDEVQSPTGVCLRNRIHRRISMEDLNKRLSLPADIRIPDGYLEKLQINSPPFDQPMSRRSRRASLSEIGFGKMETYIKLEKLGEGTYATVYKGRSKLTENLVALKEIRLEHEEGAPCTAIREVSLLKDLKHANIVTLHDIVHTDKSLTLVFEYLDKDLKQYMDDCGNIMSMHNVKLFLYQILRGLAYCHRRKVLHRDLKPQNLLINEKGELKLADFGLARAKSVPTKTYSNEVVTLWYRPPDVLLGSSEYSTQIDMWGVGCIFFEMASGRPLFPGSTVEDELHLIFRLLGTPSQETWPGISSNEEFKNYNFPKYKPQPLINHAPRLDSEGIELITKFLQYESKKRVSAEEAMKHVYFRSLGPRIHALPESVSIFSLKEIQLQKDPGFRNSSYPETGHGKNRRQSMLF
Sequence of CDK17/cyclin Y (PCTK2) (Q8ND76 whole entry partner): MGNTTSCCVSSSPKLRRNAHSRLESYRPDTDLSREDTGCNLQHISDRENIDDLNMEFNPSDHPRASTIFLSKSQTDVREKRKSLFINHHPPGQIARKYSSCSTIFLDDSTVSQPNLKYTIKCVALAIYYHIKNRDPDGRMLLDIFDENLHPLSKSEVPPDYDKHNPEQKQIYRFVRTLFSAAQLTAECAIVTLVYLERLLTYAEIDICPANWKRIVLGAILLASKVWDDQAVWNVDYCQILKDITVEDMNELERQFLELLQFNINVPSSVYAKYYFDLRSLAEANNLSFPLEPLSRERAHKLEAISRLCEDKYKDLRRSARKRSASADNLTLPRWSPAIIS
Sequence of RON/MST1R (Q04912 25-1400): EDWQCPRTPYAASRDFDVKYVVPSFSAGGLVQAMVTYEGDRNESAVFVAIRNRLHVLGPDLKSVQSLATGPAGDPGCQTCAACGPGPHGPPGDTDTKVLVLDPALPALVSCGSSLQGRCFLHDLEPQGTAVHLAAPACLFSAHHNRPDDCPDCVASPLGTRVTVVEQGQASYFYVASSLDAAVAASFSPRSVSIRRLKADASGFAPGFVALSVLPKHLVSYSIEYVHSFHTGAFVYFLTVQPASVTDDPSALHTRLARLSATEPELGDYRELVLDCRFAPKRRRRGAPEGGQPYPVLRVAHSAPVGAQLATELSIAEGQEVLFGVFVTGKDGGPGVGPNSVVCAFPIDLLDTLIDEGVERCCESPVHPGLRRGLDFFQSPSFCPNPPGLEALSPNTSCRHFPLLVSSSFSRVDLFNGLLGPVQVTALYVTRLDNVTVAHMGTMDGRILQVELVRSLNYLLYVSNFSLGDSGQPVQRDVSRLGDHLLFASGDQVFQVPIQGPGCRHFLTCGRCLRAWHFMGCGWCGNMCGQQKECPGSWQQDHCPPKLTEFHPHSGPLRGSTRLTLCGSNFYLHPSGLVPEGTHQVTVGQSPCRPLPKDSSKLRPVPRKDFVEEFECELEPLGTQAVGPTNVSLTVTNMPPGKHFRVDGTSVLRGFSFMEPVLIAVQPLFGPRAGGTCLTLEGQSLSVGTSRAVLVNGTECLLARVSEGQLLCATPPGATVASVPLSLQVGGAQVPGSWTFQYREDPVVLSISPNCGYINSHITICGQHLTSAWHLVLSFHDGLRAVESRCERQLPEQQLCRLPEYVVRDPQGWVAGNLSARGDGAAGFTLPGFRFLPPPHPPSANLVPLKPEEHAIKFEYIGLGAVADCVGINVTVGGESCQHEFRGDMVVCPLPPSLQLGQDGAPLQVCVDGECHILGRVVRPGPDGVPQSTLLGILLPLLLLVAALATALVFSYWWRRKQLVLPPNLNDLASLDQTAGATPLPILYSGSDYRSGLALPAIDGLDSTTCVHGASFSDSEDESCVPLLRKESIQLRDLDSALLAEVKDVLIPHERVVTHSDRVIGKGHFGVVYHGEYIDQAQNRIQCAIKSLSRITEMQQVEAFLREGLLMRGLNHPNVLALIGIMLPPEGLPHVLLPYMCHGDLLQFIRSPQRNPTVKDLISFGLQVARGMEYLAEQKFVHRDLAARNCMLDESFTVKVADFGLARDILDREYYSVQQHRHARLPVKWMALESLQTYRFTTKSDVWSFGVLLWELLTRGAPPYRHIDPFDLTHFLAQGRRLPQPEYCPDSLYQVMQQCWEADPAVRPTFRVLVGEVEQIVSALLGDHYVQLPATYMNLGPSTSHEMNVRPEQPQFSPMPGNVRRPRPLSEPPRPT

Row | SMILES | % enzyme activity (ERN2/IRE2) [%] | % enzyme activity (RON/MST1R) [%] | remaining activity at 1 µM (ULK2) [%] | % enzyme activity (CDK17/cyclin Y (PCTK2)) [%] | % enzyme activity (LATS1) [%] | % enzyme activity (ARK5/NUAK1) [%]
1 | COc1cc(-c2cncc(-c3ccc(N4CCN(C)CC4)cc3)c2C)cc(F)c1C(N)=O [Compound 26a, 2-Fluoro-6-methoxy-4-(4-methyl-5-(4-(4-methylpiperazin-1-yl)phenyl)pyridin-3-yl)benzamide] | 97.32 | 97.00 | 73.7 | 95.45 | 97.31 | 90.26
2 | COc1cc(-c2cncc(-c3ccc(N4C[C@@H](C)N(C)[C@@H](C)C4)cc3)c2C)cc(F)c1C(N)=O [Compound 26c, 2-Fluoro-6-methoxy-4-(4-methyl-5-(4-((3R,5S)-3,4,5-trimethylpiperazin-1-yl)phenyl)pyridin-3-yl)benzamide] | 96.29 | 104.29 | 85.2 | 99.91 | 100.53 | 93.75
